Source: ChEMBL document CHEMBL1201862, “PubChem BioAssay data set” (2004)
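Following 48 hours of exposure in 96-well plates, responses at five concentrations were used to interpolate endpoints linearly. GI50 marks 50% less growth.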 The source made the active and inactive calls. No stated cut-off is given here; in the data, active = GI50 up to about 1.1 µM and inactive = higher. Where a SMILES comes first, the peptide text is derived from it. [ ]: non-standard residue; d: D form. The star is where a group is joined. Phe(4-NO2) = N[CH](Cc1ccc([N+](=O)[O-])cc1)C(=O)O; Boc = CC(C)(C)OC(=O)*; OtBu = CC(C)(C)O*

Experiments:
Assay in all cases: NCI-60 cell line screen, 48 h
[1] = test system: SF-268
[2] = test system: HCT-15
[3] = test system: SK-MEL-2
[4] = test system: SN12C
[5] = test system: HCC 2998
[6] = test system: Malme-3M
[7] = test system: SR
[8] = test system: MDA-MB-231
[9] = test system: M14
[10] = test system: 786-0
[11] = test system: RPMI-8226
[12] = test system: HL-60
[13] = test system: OVCAR-8
[14] = test system: MDA-MB-435
[15] = test system: MCF7
[16] = test system: SNB-75
[17] = test system: OVCAR-3
[18] = test system: NCI-H226
[19] = test system: A549
[20] = test system: RXF 393

SMILES | GI50 [1] | GI50 [2] [µM] | GI50 [3] | GI50 [4] | GI50 [5] | GI50 [6] | GI50 [7] | GI50 [8] | GI50 [9] | GI50 [10] | GI50 [11] | GI50 [12] | GI50 [13] | GI50 [14] | GI50 [15] | GI50 [16] | GI50 [17] | GI50 [18] | GI50 [19] | GI50 [20]
O=C1c2cc3c(cc2CC12Cc1cc4c(cc1C2=O)CCCC4)CCCC3 | 29.3 µM (inactive) | > 100 | 75.9 µM (inactive) | 56.2 µM (inactive) | > 100 µM (inactive) | > 100 µM (inactive) | 37.1 µM (inactive) | 22.1 µM (inactive) | 65.2 µM (inactive) | 21.1 µM (inactive) | > 100 µM (inactive) | 34.9 µM (inactive) | > 100 µM (inactive) | > 100 µM (inactive) | > 100 µM (inactive) | 17.9 µM (inactive) | 23.7 µM (inactive) | > 100 µM (inactive) | 59.2 µM (inactive) | 16.4 µM (inactive)
CN(C)CCCN1C(=S)N(CCCN(C)C)c2c3cc(O)ccc3nc3c([N+](=O)[O-])ccc1c23 | 1.53 µM (inactive) | 1.87 | 6.47 µM (inactive) | 2.65 µM (inactive) | 2.44 µM (inactive) | 6.7 µM (inactive) | 0.278 µM (active) | 3.71 µM (inactive) | 7.05 µM (inactive) | 1.07 µM (active) | 4.46 µM (inactive) | 3.09 µM (inactive) | 1.87 µM (inactive) | 4.2 µM (inactive) | 0.902 µM (active) | 3.37 µM (inactive) | 1.68 µM (inactive) | 1.94 µM (inactive) | 0.743 µM (active) | 3.03 µM (inactive)
CC(=O)OCC(OC(C)=O)C(OC(C)=O)C(OC(C)=O)C(C=NN(C(C)=O)S(=O)(=O)c1ccc(/C=C2\NC(=O)N(C)C2=O)cc1)OC(C)=O (stereo not drawn) | 30.1 µM (inactive) | 25.4 | 31.5 µM (inactive) | 27.8 µM (inactive) | 30.5 µM (inactive) | 25.5 µM (inactive) | 23.4 µM (inactive) | 36.1 µM (inactive) | 69.2 µM (inactive) | 22.1 µM (inactive) | 24.2 µM (inactive) |  | 25.6 µM (inactive) | 36.3 µM (inactive) | 40.1 µM (inactive) | 33.7 µM (inactive) | 41.4 µM (inactive) | 38.7 µM (inactive) | 56 µM (inactive) | 20.5 µM (inactive)
CCCCCCCCOC(=O)c1cc([N+](=O)[O-])c(Sc2[nH]cnc3ncnc2-3)c([N+](=O)[O-])c1 | 2.38 µM (inactive) | 2.23 | 4.53 µM (inactive) | 2.33 µM (inactive) | 3.66 µM (inactive) | 3.61 µM (inactive) | 1.1 µM (active) | 7.19 µM (inactive) | 0.56 µM (active) | 1.47 µM (inactive) | 0.512 µM (active) | 1.52 µM (inactive) | 2.18 µM (inactive) | 2.06 µM (inactive) | 1.59 µM (inactive) | 2.47 µM (inactive) | 1.01 µM (active) | 2.03 µM (inactive) | 7.98 µM (inactive) | 7.69 µM (inactive)
CCN(CC)CCNc1nc2ccc([N+](=O)[O-])cc2[n+]([O-])n1 | 41 µM (inactive) | 11.5 | 15.2 µM (inactive) | 19 µM (inactive) | 11.4 µM (inactive) | 1.75 µM (inactive) | 18.4 µM (inactive) | 15.5 µM (inactive) | 16.2 µM (inactive) | 20.1 µM (inactive) | 14.7 µM (inactive) | 3.44 µM (inactive) | 13.5 µM (inactive) | 16.1 µM (inactive) | 2.24 µM (inactive) | 29.3 µM (inactive) | 30.3 µM (inactive) | 83 µM (inactive) | 21.1 µM (inactive) | 46.7 µM (inactive)
O=C1NCN(c2ccccc2)C12CCN(CCCN1CCN(CCOC(c3ccccc3)c3ccccc3)CC1)CC2 | 2.4 µM (inactive) | 1.86 | 3.11 µM (inactive) | 3.82 µM (inactive) | 0.501 µM (active) | 2.23 µM (inactive) | 0.561 µM (active) | 3.52 µM (inactive) | 1.08 µM (active) | 0.753 µM (active) | 1.67 µM (inactive) | 1.18 µM (inactive) | 3.33 µM (inactive) | 0.923 µM (active) | 3.11 µM (inactive) | 2.18 µM (inactive) | 3.54 µM (inactive) | 2.96 µM (inactive) | 4.14 µM (inactive) | 1.5 µM (inactive)
CCCCCC(=O)Nc1[nH]cnc1C(N)=O | > 100 µM (inactive) | > 100 | > 100 µM (inactive) | > 100 µM (inactive) | > 100 µM (inactive) | > 100 µM (inactive) | > 100 µM (inactive) | > 100 µM (inactive) | > 100 µM (inactive) | > 100 µM (inactive) | > 100 µM (inactive) | > 100 µM (inactive) | > 100 µM (inactive) | > 100 µM (inactive) | > 100 µM (inactive) | > 100 µM (inactive) | > 100 µM (inactive) | > 100 µM (inactive) | > 100 µM (inactive) | > 100 µM (inactive)
Cc1c(-c2ccccn2)ccc2ccccc12 | 54 µM (inactive) | 27.7 |  | 61.1 µM (inactive) | 37.8 µM (inactive) | 69.7 µM (inactive) | 56.1 µM (inactive) | 44.6 µM (inactive) | > 100 µM (inactive) | 77.3 µM (inactive) | 19 µM (inactive) | 44.6 µM (inactive) | 26.4 µM (inactive) | 48.5 µM (inactive) | 88.7 µM (inactive) | 27.9 µM (inactive) | 41.4 µM (inactive) | 43 µM (inactive) | 69.5 µM (inactive) | 29.1 µM (inactive)
CC(=O)NC(CCC(=O)OC(C)(C)C)C(=O)NC(CCC(=O)OC(C)(C)C)C(=O)NC(Cc1ccc([N+](=O)[O-])cc1)C(=O)NC(CCCCNC(=O)OC(C)(C)C)C(=O)NC(CCCCNC(=O)OC(C)(C)C)C(=O)NCC(=O)O (stereo not drawn) (Ac-E(OtBu)E(OtBu)[Phe(4-NO2)]K(Boc)K(Boc)G-OH; configuration not given here) | > 100 µM (inactive) | > 100 | 75.2 µM (inactive) | > 100 µM (inactive) | > 100 µM (inactive) | > 100 µM (inactive) | > 100 µM (inactive) | > 100 µM (inactive) | 20.5 µM (inactive) | > 100 µM (inactive) | > 100 µM (inactive) | > 100 µM (inactive) | > 100 µM (inactive) | > 100 µM (inactive) | > 100 µM (inactive) | > 100 µM (inactive) | > 100 µM (inactive) | > 100 µM (inactive) | > 100 µM (inactive) | > 100 µM (inactive)
CCOC(=O)/C(C#N)=C/c1ccc(CO)o1 | > 100 µM (inactive) | > 100 |  | > 100 µM (inactive) | > 100 µM (inactive) | > 100 µM (inactive) | > 100 µM (inactive) | > 100 µM (inactive) | > 100 µM (inactive) | > 100 µM (inactive) | > 100 µM (inactive) |  | > 100 µM (inactive) | > 100 µM (inactive) | > 100 µM (inactive) | > 100 µM (inactive) | > 100 µM (inactive) | > 100 µM (inactive) | > 100 µM (inactive) | > 100 µM (inactive)
NC1=C(N2CCCCC2)C(=O)NC2=N/C(=C\c3ccccc3)C(=O)N21 | > 100 µM (inactive) | > 100 |  | > 100 µM (inactive) | > 100 µM (inactive) | > 100 µM (inactive) | 43.7 µM (inactive) | > 100 µM (inactive) | > 100 µM (inactive) | > 100 µM (inactive) | > 100 µM (inactive) | 32 µM (inactive) | > 100 µM (inactive) | > 100 µM (inactive) | > 100 µM (inactive) | > 100 µM (inactive) |  | > 100 µM (inactive) | > 100 µM (inactive) | > 100 µM (inactive)
CNC1=Nc2ccccc2C(=S)N2CSC[C@@H]12 | > 100 µM (inactive) | > 100 | > 100 µM (inactive) | > 100 µM (inactive) | > 100 µM (inactive) | > 100 µM (inactive) | 7.55 µM (inactive) | > 100 µM (inactive) | > 100 µM (inactive) | > 100 µM (inactive) | > 100 µM (inactive) |  | > 100 µM (inactive) | > 100 µM (inactive) | > 100 µM (inactive) |  | > 100 µM (inactive) |  | > 100 µM (inactive) | > 100 µM (inactive)
CCOC(=O)c1nc2ccc(C(F)(F)F)cc2nc1Nc1ccc(OC)c(OC)c1 | 78.2 µM (inactive) | > 100 |  | > 100 µM (inactive) | > 100 µM (inactive) | > 100 µM (inactive) | 17.8 µM (inactive) | 48.9 µM (inactive) | > 100 µM (inactive) | 26.5 µM (inactive) | > 100 µM (inactive) | > 100 µM (inactive) | > 100 µM (inactive) | > 100 µM (inactive) | > 100 µM (inactive) | 21.6 µM (inactive) | > 100 µM (inactive) | > 100 µM (inactive) | > 100 µM (inactive) | > 100 µM (inactive)
NS(=O)(=O)c1nnc(NC(=O)/C=C/C(=O)O)s1 | > 100 µM (inactive) | > 100 | > 100 µM (inactive) | > 100 µM (inactive) | > 100 µM (inactive) | > 100 µM (inactive) | > 100 µM (inactive) | > 100 µM (inactive) | > 100 µM (inactive) | > 100 µM (inactive) | > 100 µM (inactive) | > 100 µM (inactive) | > 100 µM (inactive) | > 100 µM (inactive) | > 100 µM (inactive) |  | > 100 µM (inactive) |  | > 100 µM (inactive) | > 100 µM (inactive)
